Source: US9687845B2, “Self-loading microfluidic device and methods of use” (Wisconsin Alumni Research Foundation, priority 2011, dated 2017)
Counter-ions that a name gives are not always drawn.

What was measured:
K. pneumoniae [1] = assay: Off-chip MIC, broth dilution method according to CLSI protocols; assay type: cell-based; settings: CAMHB, 20 h at 35° C.
Protocol: (§1) Off-chip MIC assays using the broth dilution method according to CLSI protocols were performed as control experiments and to validate experimental data obtained with the microfluidic device.

P. mirabilis (HI4320) [2] = assay: as above; assay type: cell-based; set-up: unit not given beside the values; settings: CAMHB, 20 h at 35° C.
Protocol: as §1

P. mirabilis (HI4320) [3] = assay: MIC measurement using the self-loading microfluidic device; assay type: cell-based; settings: 18 h at 35° C., CAMBH pH 8.2 with 1% glucose and 0.05% phenol red, dilution series 0.5-1024 μg/mL
Protocol: (§2) Minor adjustments were made to procedures mimicking the CLSI guidelines to perform MIC measurements using microfluidic devices prepared as described above. Antibiotic stock solutions (10 mg/mL in sterile deionized water) of vancomycin hydrochloride, tetracycline hydrochloride, and kanamycin monosulfate were used to prepare a 1:10 dilution series. Appropriate amounts of these dilutions were added to sterile deionized water to create a two-fold dilution series that varied from 0.5-1024 μg/mL. Antibiotic solution (2.94 μL) was added to each chamber with the lowest antibiotic concentration located closest to the inlet port and the highest antibiotic concentration located in the chamber closest to the vacuum well. After antibiotic loading, the device was placed in a laminar flow hood to evaporate the liquid. After the liquid was evaporated, the device was assembled by placing the layer of PDMS forming the channel section over the chamber layer containing the dried antibiotic such that the channels connected the chambers. The assembled device was then placed under vacuum.
(§3) The standardized culture was then diluted 1:200 in CAMBH media, pH 8.2 supplemented with 1% glucose and 0.05% phenol red to provide a colorimetric change upon growth. The device was removed from the vacuum and 20 μL of cell suspension was pipetted onto the inlet port. […] Bacterial growth changed the pH of the liquid nutrient media containing the indicator phenol red, and produced a visible color change that was used to identify the cell growth in chambers.

K. pneumoniae [4] = assay: as above; assay type: cell-based; settings: 18 h at 35° C., CAMBH pH 8.2 with 1% glucose and 0.05% phenol red, dilution series 0.5-1024 μg/mL
Protocol: as §2, §3

[5] = tested on: kanamycin-resistant strain of E. coli MG1655; assay: Susceptibility to multiple antibiotics on a single microfluidic device using breakpoint values; assay type: cell-based; settings: 18 h; vancomycin 2, 4, 8 μg/mL, tetracycline 0.5, 1, 2 μg/mL, kanamycin 1, 2, 4 μg/mL
Description: In this Example, a single microfluidic device was used to simultaneously test the susceptibility of the kanamycin-resistant strain of E. coli MG1655 described above to multiple antibiotics using breakpoint values.
In clinical microbiology, a strain is classified as susceptible, intermediate, or resistant based on the relationship of the MIC of an antibiotic to specified ‘breakpoint’ values. Breakpoint values are set by organizations, such as the CLSI, and take into consideration MIC values of wild type strains, pharmacokinetic/pharmacodynamic data, and clinical outcomes. Breakpoint values are available for specific clinically relevant pairings of bacterial species and antibiotics and enable clinical decisions without knowing the exact MIC value.
Specifically, vancomycin, tetracycline, and kanamycin were added to the reaction wells of a single device. The most common breakpoints for vancomycin (susceptible <2 μg/mL, resistant >2 μg/mL), tetracycline (susceptible <1 μg/mL, intermediate=2 μg/mL, resistant >2 μg/mL), and gentamicin (susceptible <2 μg/mL, intermediate=4 μg/mL, resistant >4 μg/mL) were used. As there are no published breakpoints available for kanamycin, the breakpoint values for the structurally related aminoglycoside, gentamicin, against aerobic bacteria was used. A microfluidic device with ten chambers was prepared as described in Example 1 above. The ten chambers were divided into three chambers for each antibiotic vancomycin (2, 4, 8 μg/mL), tetracycline (0.5, 1, 2 μg/mL), and kanamycin (1, 2, 4 μg/mL) and one chamber for a control containing no antibiotic.

E. coli (UT189) [6] = settings: cited from earlier work
E. coli (UT189) [7] = assay: Growth in sugars, microfluidic device (phenol red colour change); as to Growth, Device: key: + indicates growth; − indicates no growth; assay type: cell-based; settings: for Growth, Device: E. coli (UT189), sugar 1% (w/v), LB with 0.05% phenol red pH 8.2; for growth in device chamber: E. coli (UT189)-1
Protocol: (§4) Self-loading microfluidic devices were prepared as described above. Reaction wells were filled with different sugar solutions including (1) cellbiose, (2) glycerol, (3) lactose, (4) mannitol, (5) mannose, (6) raffinose, (7) sucrose, (8) trehalose, (9) xylose, and (10) control (no sugar) (FIG. 28). The final concentration of the sugar in each chamber was 1% (w/v). After loading the sugar solutions, the liquid was evaporated as described above. The devices were then assembled and degassed by vacuum.
(§5) Cultures of A. baumannii-1, A. baumannii-2, K. pneumoniea-1, K. pneumoniea-2, S. aureus-1, S. aureus-2, E. coli (UT189), E. faecalis-1, E. faecalis-2, V. cholerae-1, and (11) V. cholerae-2 were grown for 15 hours in LB (pH 7.0). The cultures were then diluted at a ratio of 1:50 in LB containing 0.05% (w/v) phenol red (pH8.2) and added to individual devices using degas-driven flow. Growth of bacteria results in a pH change of the LB that causes a color change from red (illustrated in FIGS. 29 and 30 as filled chambers) to yellow (illustrated in FIGS. 29 and 30 as hatched chambers).

A. baumannii [8] = assay: as above; assay type: cell-based; settings: for Growth, Device: A. baumannii, sugar 1% (w/v), LB with 0.05% phenol red pH 8.2
Protocol: as §4, §5

K. pneumoniae [9] = assay: as above; assay type: cell-based; settings: for Growth, Device: K. pneumoniae, sugar 1% (w/v), LB with 0.05% phenol red pH 8.2; for growth in device chamber: K. pneumoniea-1 and K. pneumoniea-2, by 4 hours of incubation
Protocol: as §4, §5

S. aureus [10] = settings: cited from earlier work
E. coli (UT189) [11] = assay: Growth in sugars, culture tubes; assay type: cell-based
Description: (§6) Results observed in microfluidic devices are illustrated in FIGS. 29A-F and 30A-E. The predicted growth as compared to devices and culture tubes are summarized in Table 2.

E. faecalis [12] = assay: Growth in sugars, culture tubes; assay type: cell-based
Description: as §6

A. baumannii [13] = assay: Growth in sugars, culture tubes; assay type: cell-based; settings: for Growth, Tube: A. baumannii, culture tubes
Description: as §6

K. pneumoniae [14] = assay: Growth in sugars, culture tubes; assay type: cell-based
Description: as §6

E. faecalis [15] = settings: cited from earlier work
S. aureus [16] = assay: Growth in sugars, microfluidic device (phenol red colour change); as to Growth, Device: key: + indicates growth; − indicates no growth; assay type: cell-based; settings: for Growth, Device: S. aureus, sugar 1% (w/v), LB with 0.05% phenol red pH 8.2
Protocol: as §4, §5

E. faecalis [17] = assay: as above; assay type: cell-based; settings: E. faecalis-1 and E. faecalis-2; by 18 hours of incubation
Protocol: as §4, §5

S. aureus [18] = assay: Growth in sugars, culture tubes; assay type: cell-based; settings: for Growth, Tube: culture tubes; as to Growth, Tube: key: + indicates growth; − indicates no growth
Description: as §6

[19] = S. aureus-1, by 8 hours of incubation
For Growth, Device in this document: key: + indicates growth; − indicates no growth.
For Growth, Predicted in this document: key: + indicates growth; − indicates no growth.

| SMILES | Growth, Predicted (E. coli (UT189) [6]) | Growth, Device (E. coli (UT189) [7]) | Growth, Device (A. baumannii [8]) | Growth, Device (K. pneumoniae [9]) | growth in device chamber (K. pneumoniae [9]) | Growth, Predicted (S. aureus [10]) | Growth, Tube (E. coli (UT189) [11]) | Growth, Tube (E. faecalis [12]) | Growth, Tube (A. baumannii [13]) | Growth, Tube (K. pneumoniae [14]) | Growth, Predicted (E. faecalis [15]) | growth in device chamber (S. aureus [16]; [19]) | Growth, Device (S. aureus [16]) | growth in device chamber (E. coli (UT189) [7]) | growth in device chamber (E. faecalis [17]) | Growth, Tube (S. aureus [18]) | further results |
| --- | --- | --- | --- | --- | --- | --- | --- | --- | --- | --- | --- | --- | --- | --- | --- | --- | --- |
| CN[C@H](CC(C)C)C(=O)N[C@H]1C(=O)N[C@@H](CC(N)=O)C(=O)N[C@H]2C(=O)N[C@H]3C(=O)N[C@H](C(=O)N[C@H](C(=O)O)c4cc(O)cc(O)c4-c4cc3ccc4O)[C@H](O)c3ccc(c(Cl)c3)Oc3cc2cc(c3O[C@@H]2O[C@H](CO)[C@@H](O)[C@H](O)[C@H]2O[C@H]2C[C@](C)(N)[C@H](O)[C@H](C)O2)Oc2ccc(cc2Cl)[C@H]1O [vancomycin, vancomycin hydrochloride] |  |  |  |  |  |  |  |  |  |  |  |  |  |  |  |  | MIC, Broth (K. pneumoniae [1]): >1024; MIC, Broth (P. mirabilis (HI4320) [2]): >1024; MIC, Device (P. mirabilis (HI4320) [3]): >1024; MIC, Device (K. pneumoniae [4]): >1024; effect on growth of the strain [5]: did not have any effect |
| OC[C@H]1O[C@H](OC[C@H]2O[C@H](O[C@]3(CO)O[C@H](CO)[C@@H](O)[C@@H]3O)[C@H](O)[C@@H](O)[C@@H]2O)[C@H](O)[C@@H](O)[C@H]1O [Raffinose, raffinose] | − | − | − | + | grew | − | − | − | − | + | − |  |  |  |  |  |  |
| OC[C@H]1O[C@@H](O[C@H]2[C@H](O)[C@@H](O)C(O)O[C@@H]2CO)[C@H](O)[C@@H](O)[C@H]1O (stereo partly drawn) [Lactose, lactose] | + | + |  | − |  | + | + | + |  | − | + | growth was not observed | − | grew | grew | + | growth in device chamber (S. aureus [16]; S. aureus-2, by 18 hours of incubation): growth was not observed |
| OC[C@H]1O[C@@H](O[C@H]2[C@H](O)[C@@H](O)[C@@H](O)O[C@@H]2CO)[C@H](O)[C@@H](O)[C@@H]1O [Cellbiose, cellbiose] | − | − | − | − |  | − | − | + | − | + | + |  |  |  | grew |  |  |
| OC[C@@H](O)[C@@H](O)[C@H](O)[C@H](O)CO [Mannitol, mannitol] | + | + |  | + | grew | + | + | + |  | + | + | grew | + | grew | grew | + |  |
| OCC(O)CO [Glycerol, glycerol] | + | − | − | + | grew | + | − | + | − | + | + | grew | + |  | grew | − | growth in culture tubes (S. aureus [18]): no growth was observed |
| O=C[C@H](O)[C@@H](O)[C@H](O)CO [Xylose, xylose] | + | − | + | − |  | − | + | − | − | + | − |  |  | grew |  |  | growth in device chamber (A. baumannii [8]; A. baumannii-1 and A. baumannii-2, by 8 hours of incubation): grew; growth in culture tubes (A. baumannii [13]; A. baumannii-1 and A. baumannii-2): did not grow |
